Reference: patent publication US20230242585A1, “IMMUNOMODULATORS” (Bristol-Myers Squibb Company, priority 2020, published 2023)
Starred links: 1 amine or outer side, 2 acyl side, 3 side chain; linkers in the order of their positions; H or OH if unused. Positions of bridges follow the written chain, without caps; N, C: chain ends. Non-standard residues stand in square brackets, D forms with d. Residues, ends and D or L forms follow the SMILES beside them. X49 = O=C([C@H](CNC[C@@H](O)[C@H](O)[C@@H](O)[C@@H](O)[C@H](O)CO)N[*:1])[*:2]; X8 = O=C([C@H](CNC[C@@H](O)[C@@H](O)[C@@H](O)[C@H](O)CO)N[*:1])[*:2]; X32 = O=C([C@H](CCNC[C@@H](O)[C@H](O)[C@@H](O)CO)N[*:1])[*:2]; X31 = O=C([C@H](CNC[C@@H](O)[C@H](O)[C@@H](O)CO)N[*:1])[*:2]; X6 = O=C([C@H](CCNC[C@H](O)[C@@H](O)[C@H](O)CO)N[*:1])[*:2]; X5 = O=C([C@H](CNC[C@H](O)[C@@H](O)[C@H](O)CO)N[*:1])[*:2]; Trp(1-CH2COOH) = N[C@@H](Cc1cn(CC(=O)O)c2ccccc12)C(=O)O; X18 = O=C([C@H](CNCc1cccc2nccnc12)N[*:1])[*:2]; Hyp = O=C(O)[C@@H]1C[C@@H](O)CN1; NMeNle = CCCC[C@H](NC)C(=O)O; NMeA = CN[C@@H](C)C(=O)O; Dab = NCC[C@H](N)C(=O)O

Target: T1, PD-1/PD-L1 (Homo sapiens, UniProt Q9NZQ7)
T1 construct: TVMV protease site (linker) (C); made in house; host or cells: HEK293T cells
Test: PD-1/PD-L1 Homogenous Time-Resolved Fluorescence (HTRF) binding assay
Conditions: PD-L1-His 10 nM, PD-1-Ig 20 nM
Method in brief: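 Compounds preincubated 15 min with PD-L1-His (residues 18-239, 10 nM) in dPBS with 0.1% BSA, 0.05% Tween-20, then PD-1-Ig (residues 25-167, 20 nM) for 15 min. Eu-cryptate anti-Ig (1 nM) and APC anti-His (20 nM) equilibrated 30 min; 665/620 nm ratio read, IC50 derived.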

T1 sequence (Q9NZQ7 18-239): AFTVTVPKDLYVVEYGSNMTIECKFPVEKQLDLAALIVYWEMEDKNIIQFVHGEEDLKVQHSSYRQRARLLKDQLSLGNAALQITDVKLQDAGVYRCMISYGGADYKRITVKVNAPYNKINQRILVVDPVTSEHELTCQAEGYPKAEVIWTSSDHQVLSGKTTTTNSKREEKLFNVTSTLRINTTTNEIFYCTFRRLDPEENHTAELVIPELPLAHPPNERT

IC50 [nM]	Structure (SMILES)
8.1	CCCC[C@H]1C(=O)N(C)[C@@H](CCCC)C(=O)N[C@@H](CC(C)C)C(=O)N[C@H](C(=O)NCC(N)=O)CSCC(=O)N[C@@H](Cc2ccc(O)cc2)C(=O)N(C)[C@@H](C)C(=O)N[C@@H](CC(N)=O)C(=O)N2CCC[C@H]2C(=O)N[C@@H](CNC[C@@H](O)[C@H](O)[C@@H](O)[C@@H](O)[C@H](O)CO)C(=O)N[C@@H](CC(C)C)C(=O)N2C[C@H](O)C[C@H]2C(=O)N[C@@H](Cc2c[nH]c3ccccc23)C(=O)N[C@@H](CCN)C(=O)N[C@@H](Cc2cn(CC(=O)O)c3ccccc23)C(=O)N1C [Example 2019] ({CH2CO}-Y[NMeA]NP[X49]L[Hyp]W[Dab][Trp(1-CH2COOH)][NMeNle][NMeNle]LCG-NH2; thioether N-14)
8.6	CCCC[C@H]1C(=O)N(C)[C@@H](CCCC)C(=O)N[C@@H](CC(C)C)C(=O)N[C@H](C(=O)NCC(N)=O)CSCC(=O)N[C@@H](Cc2ccc(O)cc2)C(=O)N(C)[C@@H](C)C(=O)N[C@@H](CC(N)=O)C(=O)N2CCC[C@H]2C(=O)N[C@@H](CNC[C@@H](O)[C@@H](O)[C@@H](O)[C@H](O)CO)C(=O)N[C@@H](CC(C)C)C(=O)N2C[C@H](O)C[C@H]2C(=O)N[C@@H](Cc2c[nH]c3ccccc23)C(=O)N[C@@H](CCN)C(=O)N[C@@H](Cc2cn(CC(=O)O)c3ccccc23)C(=O)N1C [Example 2022] ({CH2CO}-Y[NMeA]NP[X8]L[Hyp]W[Dab][Trp(1-CH2COOH)][NMeNle][NMeNle]LCG-NH2; thioether N-14)
2.4	CCCC[C@H]1C(=O)N(C)[C@@H](CCCC)C(=O)N[C@@H](CC(C)C)C(=O)N[C@H](C(=O)NCC(N)=O)CSCC(=O)N[C@@H](Cc2ccc(O)cc2)C(=O)N(C)[C@@H](C)C(=O)N[C@@H](CC(N)=O)C(=O)N2CCC[C@H]2C(=O)N[C@@H](CNC[C@@H](O)[C@H](O)[C@@H](O)CO)C(=O)N[C@@H](CC(C)C)C(=O)N2C[C@H](O)C[C@H]2C(=O)N[C@@H](Cc2c[nH]c3ccccc23)C(=O)N[C@@H](CCNC[C@@H](O)[C@H](O)[C@@H](O)CO)C(=O)N[C@@H](Cc2cn(CC(=O)O)c3ccccc23)C(=O)N1C [Example 2018] ({CH2CO}-Y[NMeA]NP[X31]L[Hyp]W[X32][Trp(1-CH2COOH)][NMeNle][NMeNle]LCG-NH2; thioether N-14)

The next lines start with the compound.

Structure (SMILES)	IC50 [nM]
CCCC[C@H]1C(=O)N(C)[C@@H](CCCC)C(=O)N[C@@H](CC(C)C)C(=O)N[C@H](C(=O)NCC(N)=O)CSCC(=O)N[C@@H](Cc2ccc(O)cc2)C(=O)N(C)[C@@H](C)C(=O)N[C@@H](CC(N)=O)C(=O)N2CCC[C@H]2C(=O)N[C@@H](CNC[C@H](O)[C@@H](O)[C@H](O)CO)C(=O)N[C@@H](CC(C)C)C(=O)N2C[C@H](O)C[C@H]2C(=O)N[C@@H](Cc2c[nH]c3ccccc23)C(=O)N[C@@H](CCNC[C@H](O)[C@@H](O)[C@H](O)CO)C(=O)N[C@@H](Cc2cn(CC(=O)O)c3ccccc23)C(=O)N1C [Example 2014] ({CH2CO}-Y[NMeA]NP[X5]L[Hyp]W[X6][Trp(1-CH2COOH)][NMeNle][NMeNle]LCG-NH2; thioether N-14)	2.5
CCCC[C@H]1C(=O)N(C)[C@@H](CCCC)C(=O)N[C@@H](CC(C)C)C(=O)N[C@H](C(=O)NCC(N)=O)CSCC(=O)N[C@@H](Cc2ccc(O)cc2)C(=O)N(C)[C@@H](C)C(=O)N[C@@H](CC(N)=O)C(=O)N2CCC[C@H]2C(=O)N[C@@H](CNCc2cccc3nccnc23)C(=O)N[C@@H](CC(C)C)C(=O)N2C[C@H](O)C[C@H]2C(=O)N[C@@H](Cc2c[nH]c3ccccc23)C(=O)N[C@@H](CCN)C(=O)N[C@@H](Cc2cn(CC(=O)O)c3ccccc23)C(=O)N1C [Example 1004] ({CH2CO}-Y[NMeA]NP[X18]L[Hyp]W[Dab][Trp(1-CH2COOH)][NMeNle][NMeNle]LCG-NH2; thioether N-14)	4.3
